# Source: paper PMC8118497, “Facile synthesis of PEI-based crystalline templated mesoporous silica with molecular chirality for improved oral delivery of the poorly water-soluble drug” (Drug Delivery, 2021)
# Read-outs that look alike come from different tables or passages of the source.
# Assays:
# [1] = In vitro release of NMP, USP II paddle method in 0.5% SDS solution; assay type: physicochemical; conditions: 250 mL, 37 °C, 50 rpm, 10 mg NMP
# Method: The in vitro release behavior of samples was assessed by a USP II paddle method on a dissolution apparatus (ZRS-8G, Huanghai Medicament Test Instrument, China). Prewarmed medium of 0.5% (w/v) sodium dodecyl sulfate (SDS) solution (250 mL, 37 °C) was added to the dissolution cup with a stirrer rotation speed of 50 rpm. 10 mg NMP, NMP/MCM41 and NMP/PEIs@TA-CMSs samples containing 10 mg of NMP were suspended in the release medium. 5 mL of aliquots were collected and replaced by an equal volume of fresh isothermal supplement at predetermined time intervals, After filtering through a 0.22 μm membrane filter, the drug release amounts were tested by UV spectroscopy (UV-1750, Shimadzu, Japan) at 238 nm. All in vitro release studies were repeated three times.
# [2] = In vivo pharmacokinetics after oral administration; set-up: species or system Sprague-Dawley rats; conditions: rats
# Method: Twelve male Sprague-Dawley rats (SD rats, 180–220 g body weight) were randomly divided into three groups (n = 4): NMP group, NMP/PEIs@TA-CMS group and NMP/MCM41 group. Prior to the experiment, animals were fasted overnight with free access to water. The animals were orally administered the water suspensions of NMP, NMP/PEIs@TA-CMS and NMP/MCM4 with a drug dose of 2.5 mg. At appropriate sampling times, aliquot blood sample (about 0.6 mL) was withdrawn via the retro-orbital venous sinus, centrifuged to separate the plasma, and stored at −20 °C.
# In the pretreatment procedure, 20 μL of internal standard solution (nitrendipine, 20 μg/mL) was added into 200 μL plasma sample and vortexed for 1 min. Afterwards, 100 μL NaOH (0.01 mol/L) was uniformly mixed with the system and vortexed for 1 min. The drug was extracted by 2.5 mL diethyl ether, vortexed for 5 min, and centrifugated for 12 min to separate the organic layer (2 mL). The organic layer (2 mL) was then transferred to a new tube and evaporated to dryness under a gentle stream of N2. After reconstituting with 100 μL mobile phase, the 20 μL sample was analyzed by high performance liquid chromatography (HPLC) method. The separation procedure was performed on a Kromasil ODS-2C18 column (Thermo ODS-2 Hypersil, 250 mm × 4.6 mm, […], UK) equipped with a JanuSep C18 pre-column (Liaoning, China), and the column temperature was kept at 25 °C. The UV detector was set at 240 nm. The mixture of methanol, acetonitrile and water (3:4:3, v/v/v) was selected as the optimized mobile phase with a flow rate of 1 mL/min. The NMP content was calculated according to internal standard method, and the main pharmacokinetic parameters were obtained using the software of DAS 2.0.
# [3] = test system: cerebral anoxia of mice induced by NaNO2; experiment: In vivo pharmacodynamics: survival time of mice on cerebral anoxia induced by NaNO2; set-up: species or system Kunming mice; conditions: oral dose 0.5 mg NMP (middle dose); NaNO2 i.p. 90 min post administration
# Method: The pharmacodynamics study was performed to further evaluating the effect of PEIs@TA-CMS on improving the oral adsorption of NMP. 36 SPF-grade Kunming mice (18–22 g body weight) were assigned into six groups, randomly (n = 6): Normal saline group, NMP group, NMP/PEIs@TA-CMS (low dose) group, NMP/PEIs@TA-CMS (middle dose) group, NMP/PEIs@TA-CMS (high dose) group and NMP/MCM41 group. Before dosing, animals were fasted overnight with free access to water. Animals in the Normal Saline group were received oral treatment of 0.5 mL normal saline, and were considered as negative control. While for NMP group which severed as positive control, 0.5 mg pure NMP was suspended in 0.5 mL normal saline and was imposed to animals. Normal saline suspensions of NMP/PEIs@TA-CMS and NMP/MCM41 containing 0.5 mg NMP were also oral administrated to mice. Meanwhile, half and twice of the dose in NMP/PEIs@TA-CMS (middle dose) group, which were respectively in doses equivalent to 0.25 mg and 1 mg NMP, were given to mice to further study the influence of dose. […] Then the clinic manifestation and survival time of mice was recorded to study the protective effect of NMP formulations on mice cerebral anoxia.
# [4] = background statement, no reference given; cited from earlier work
smiles,measurement,setting,value
"COCCOC(=O)C1=C(C)NC(C)=C(C(=O)OC(C)C)C1c1cccc([N+](=O)[O-])c1 (stereo not drawn) [NMP, nimodipine]",drug release amount within 60 min,[1],29.24%
same,drug release amount within 240 min,[1],41.32%
same,half-life,"[2]; male, Sprague-Dawley, rat, plasma, drug dose 2.5 mg",10.9 ± 1.13 h
same,MRT inf,"[2]; male, Sprague-Dawley, rat, plasma, drug dose 2.5 mg, read-out: MRT0-∞",8.84 ± 1.73 h
same,Cmax,"[2]; male, Sprague-Dawley, rat, plasma, drug dose 2.5 mg, read-out: maximum concentration (Cmax)",100 ng/mL
same,AUC(0-inf),"[2]; male, Sprague-Dawley, rat, plasma, drug dose 2.5 mg, water suspension",1190 ± 160 ng·h/mL
same,Cmax,[2]; drug dose 2.5 mg,100 ± 20 ng/mL
same,Tmax,[2]; drug dose 2.5 mg,0.5 ± 0 h
same,Relative bioavailability,"[2]; drug dose 2.5 mg, relative to pure NMP",100%
same,time of second plasma concentration peak (double peaks),"[2]; post administration, suggests enterohepatic circulation",8 h
same,survival time of mice after injection of NaNO2,[3],14.33 min
same,bioavailability,[4],lower than 13%
